Test [1] concerns U2OS. The experiment in a line: Induction of cell cycle arrest in human U2OS cells assessed as proportion of cells at S phase at 0.5 uM incubated for 24 hrs by flow cytometry (reference value: 39%). It is filed as functional. In general terms: In flow cytometry, cells or beads pass a laser one at a time.
In test [2] the test system is U2OS. The experiment in a line: Induction of cell cycle arrest in human U2OS cells assessed as proportion of cells at G1 phase at 0.5 uM incubated for 24 hrs by flow cytometry (reference value: 45%). It is filed as functional.
In test [3] the test system is U2OS. The experiment in a line: Induction of cell cycle arrest in human U2OS cells assessed as proportion of cells at G2/M phase at 0.5 uM incubated for 24 hrs by flow cytometry (reference value: 16%). It is filed as functional.
Test [4] deals with U2OS. The experiment in a line: cells. The following applies: Homo sapiens, 48 h.
Description: Antiproliferative activity against human U2OS cells assessed as reduction in cell viability incubated for 48 hrs by MTS assay
The subject of test [5] is U2OS. The experiment in a line: Induction of cell cycle arrest in human U2OS cells assessed as proportion of cells at G1 phase at 5 uM incubated for 24 hrs by flow cytometry (reference value: 45%). The format is functional.
Test [6] deals with U2OS. The experiment in a line: Induction of cell cycle arrest in human U2OS cells assessed as proportion of cells at G2/M phase at 5 uM incubated for 24 hrs by flow cytometry (reference value: 16%). The format is functional.
Test [7] deals with HBL-100. The experiment in a line: cells. The following applies: Homo sapiens, HBL-100, 48 h.
Description: Antiproliferative activity against human HBL-100 cells assessed as reduction in cell viability incubated for 48 hrs by MTS assay
For test [8], the target named is T1, Serine/threonine-protein kinase pim-1 (Homo sapiens, UniProt P11309). The experiment in a line: Inhibition of human recombinant PIM-1 expressed in bacteria assessed as enzyme residual activity using histone H1 as substrate at 10 uM incubated for 30 mins in presence of ATP by ADP-Glo kinase assay. A general note: ADP-Glo first removes unused ATP, then detects ADP through luciferase.
Target sequence in this assay (P11309 whole entry, looked up): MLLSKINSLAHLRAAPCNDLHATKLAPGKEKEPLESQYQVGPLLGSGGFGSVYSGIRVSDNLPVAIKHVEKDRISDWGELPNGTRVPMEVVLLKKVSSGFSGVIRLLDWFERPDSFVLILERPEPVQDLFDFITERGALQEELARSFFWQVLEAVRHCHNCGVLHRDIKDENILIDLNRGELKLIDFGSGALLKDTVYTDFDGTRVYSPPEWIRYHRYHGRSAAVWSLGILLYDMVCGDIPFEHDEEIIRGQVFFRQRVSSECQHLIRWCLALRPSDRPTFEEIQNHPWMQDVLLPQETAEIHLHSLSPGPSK

Test [9] has as its system U2OS. The experiment in a line: Induction of cell cycle arrest in human U2OS cells assessed as proportion of cells at S phase at 5 uM incubated for 24 hrs by flow cytometry (reference value: 39%). It is filed as functional.
The target of test [10] is T1, Serine/threonine-protein kinase pim-1. The experiment in a line: Inhibition of human recombinant PIM-1 expressed in bacteria using histone H1 as substrate incubated for 30 mins in presence of ATP by ADP-Glo kinase assay.
Target sequence in this assay (P11309 whole entry): as the sequence (P11309 whole entry, looked up) above
For test [11], the system named is U2OS. The experiment in a line: Induction of cell cycle arrest in human U2OS cells assessed as proportion of cells at G1 phase at 2.5 uM incubated for 24 hrs by flow cytometry (reference value: 45%). The format is functional.
Test [12] deals with Dual specificity tyrosine-phosphorylation-regulated kinase 1A (Rattus norvegicus) (UniProt Q63470). The experiment in a line: Inhibition of recombinant rat DYRK1A kinase domain (1 to 499 residues) expressed in bacteria assessed as enzyme residual activity using KKISGRLSPIMTEQ as substrate at 10 uM incubated for 30 mins in presence of ATP by ADP-Glo kinase assay.
In test [13] the test system is U2OS. The experiment in a line: Induction of cell cycle arrest in human U2OS cells assessed as proportion of cells at G2/M phase at 2.5 uM incubated for 24 hrs by flow cytometry (reference value: 16%). It is filed as functional.
Test [14] deals with T2, CDK9/cyclin T1 (Homo sapiens) (UniProt O60563+P50750). The experiment in a line: Inhibition of human recombinant CDK9/cyclin T expressed in baculovirus-infected Sf9 cells assessed as enzyme residual activity using YSPTSPSYSPTSPSYSPTSPSKKKK as substrate at 1 uM incubated for 30 mins in presence of ATP by ADP-Glo kinase assay.
Test [15] addresses Dual specificity tyrosine-phosphorylation-regulated kinase 1A (Rattus norvegicus, UniProt Q63470). The experiment in a line: Inhibition of recombinant rat DYRK1A kinase domain (1 to 499 residues) expressed in bacteria using KKISGRLSPIMTEQ as substrate incubated for 30 mins in presence of ATP by ADP-Glo kinase assay.
In test [16] the target is Dual specificity protein kinase CLK1 (Mus musculus) (UniProt P22518). The experiment in a line: Inhibition of recombinant mouse CLK1 expressed in bacteria assessed as enzyme residual activity using GRSRSRSRSRSR as substrate at 10 uM incubated for 30 mins in presence of ATP by ADP-Glo kinase assay.
Sequence of Dual specificity protein kinase CLK1 (Mus musculus) (P22518 whole entry, looked up): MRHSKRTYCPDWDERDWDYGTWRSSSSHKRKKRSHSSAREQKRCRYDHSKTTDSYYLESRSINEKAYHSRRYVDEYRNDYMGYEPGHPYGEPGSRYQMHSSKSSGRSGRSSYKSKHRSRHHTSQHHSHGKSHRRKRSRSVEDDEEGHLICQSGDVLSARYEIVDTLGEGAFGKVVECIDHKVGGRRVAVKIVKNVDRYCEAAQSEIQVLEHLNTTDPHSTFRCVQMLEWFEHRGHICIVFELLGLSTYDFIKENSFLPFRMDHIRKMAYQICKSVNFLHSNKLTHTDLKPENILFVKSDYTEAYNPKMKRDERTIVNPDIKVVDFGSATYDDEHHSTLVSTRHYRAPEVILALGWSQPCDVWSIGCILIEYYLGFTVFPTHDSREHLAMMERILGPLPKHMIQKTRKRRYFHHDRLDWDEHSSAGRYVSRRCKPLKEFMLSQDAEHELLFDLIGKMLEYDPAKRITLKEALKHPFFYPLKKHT
Test [17] addresses Glycogen synthase kinase-3 beta (Homo sapiens) (UniProt P49841). The experiment in a line: Inhibition of human recombinant GSK-3 beta expressed in baculovirus-infected Sf9 cells assessed as enzyme residual activity using YRRAAVPPSPSLSRHSSPHQSpEDEEE as substrate at 1 uM incubated for 30 mins in presence of ATP by ADP-Glo kinase assay.
Test [18] has as its target T1, Serine/threonine-protein kinase pim-1. The experiment in a line: Inhibition of human recombinant PIM-1 expressed in bacteria assessed as enzyme residual activity using histone H1 as substrate at 1 uM incubated for 30 mins in presence of ATP by ADP-Glo kinase assay.
Target sequence in this assay (P11309 whole entry, looked up): as the sequence (P11309 whole entry, looked up) above
The target of test [19] is T2, CDK9/cyclin T1 (Homo sapiens). The experiment in a line: Inhibition of human recombinant CDK9/cyclin T expressed in baculovirus-infected Sf9 cells assessed as enzyme residual activity using YSPTSPSYSPTSPSYSPTSPSKKKK as substrate at 10 uM incubated for 30 mins in presence of ATP by ADP-Glo kinase assay.
The target of test [20] is Casein kinase I isoform epsilon (Homo sapiens) (UniProt P49674). The experiment in a line: Inhibition of human recombinant CK1 epsilon expressed in baculovirus-infected Sf9 cells assessed as enzyme residual activity using RRKHAAIGSpAYSITA as substrate at 10 uM incubated for 30 mins in presence of ATP by ADP-Glo kinase assay.
Sequence of Casein kinase I isoform epsilon (Homo sapiens) (P49674 whole entry, looked up, canonical isoform): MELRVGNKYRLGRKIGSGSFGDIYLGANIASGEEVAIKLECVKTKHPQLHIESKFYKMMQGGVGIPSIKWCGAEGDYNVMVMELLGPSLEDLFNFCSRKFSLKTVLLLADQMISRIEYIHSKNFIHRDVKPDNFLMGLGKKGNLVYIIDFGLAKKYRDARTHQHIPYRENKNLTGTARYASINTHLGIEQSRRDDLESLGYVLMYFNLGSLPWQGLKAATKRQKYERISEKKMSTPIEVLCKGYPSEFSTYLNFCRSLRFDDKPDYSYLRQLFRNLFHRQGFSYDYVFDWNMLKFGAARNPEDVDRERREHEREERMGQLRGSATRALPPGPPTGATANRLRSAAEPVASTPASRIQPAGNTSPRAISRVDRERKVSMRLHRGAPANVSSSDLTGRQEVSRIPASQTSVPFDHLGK
Test [21] addresses Glycogen synthase kinase-3 beta (Homo sapiens) (UniProt P49841). The experiment in a line: Inhibition of human recombinant GSK-3 beta expressed in baculovirus-infected Sf9 cells assessed as enzyme residual activity using YRRAAVPPSPSLSRHSSPHQSpEDEEE as substrate at 10 uM incubated for 30 mins in presence of ATP by ADP-Glo kinase assay.
The target of test [22] is T3, Cyclin-dependent kinase 5/CDK5 activator 1 (Homo sapiens) (UniProt Q00535+Q15078). The experiment in a line: Inhibition of human recombinant CDK5/p25 expressed in bacteria assessed as enzyme residual activity using histone H1 as substrate at 10 uM incubated for 30 mins in presence of ATP by ADP-Glo kinase assay.
T3 sequence (Q00535 whole entry): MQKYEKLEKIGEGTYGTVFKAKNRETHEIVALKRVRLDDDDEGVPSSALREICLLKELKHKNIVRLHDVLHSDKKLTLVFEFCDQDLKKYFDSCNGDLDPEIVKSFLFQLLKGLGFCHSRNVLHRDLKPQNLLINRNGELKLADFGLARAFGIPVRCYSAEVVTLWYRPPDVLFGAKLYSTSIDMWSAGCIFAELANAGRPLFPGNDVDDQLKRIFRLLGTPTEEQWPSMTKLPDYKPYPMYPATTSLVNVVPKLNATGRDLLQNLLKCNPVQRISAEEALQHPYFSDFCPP
T3 sequence (Q15078 99-307 partner limits assumed): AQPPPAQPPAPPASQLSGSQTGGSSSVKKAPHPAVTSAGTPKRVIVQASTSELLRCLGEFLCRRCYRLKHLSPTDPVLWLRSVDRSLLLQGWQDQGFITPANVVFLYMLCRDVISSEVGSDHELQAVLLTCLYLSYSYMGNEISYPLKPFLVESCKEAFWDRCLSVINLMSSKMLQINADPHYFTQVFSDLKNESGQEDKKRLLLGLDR
Test [23] concerns SH-SY5Y. The experiment in a line: cells. The following applies: Homo sapiens, 48 h.
Description: Antiproliferative activity against human SH-SY5Y cells assessed as reduction in cell viability incubated for 48 hrs by MTS assay
Test [24] deals with Casein kinase I isoform epsilon (Homo sapiens) (UniProt P49674). The experiment in a line: Inhibition of human recombinant CK1 epsilon expressed in baculovirus-infected Sf9 cells assessed as enzyme residual activity using RRKHAAIGSpAYSITA as substrate at 1 uM incubated for 30 mins in presence of ATP by ADP-Glo kinase assay.
Test [25] has as its target Dual specificity protein kinase CLK1 (Mus musculus) (UniProt P22518). The experiment in a line: Inhibition of recombinant mouse CLK1 expressed in bacteria assessed as enzyme residual activity using GRSRSRSRSRSR as substrate at 1 uM incubated for 30 mins in presence of ATP by ADP-Glo kinase assay.
Test [26] concerns the target T3, Cyclin-dependent kinase 5/CDK5 activator 1 (Homo sapiens). The experiment in a line: Inhibition of human recombinant CDK5/p25 expressed in bacteria assessed as enzyme residual activity using histone H1 as substrate at 1 uM incubated for 30 mins in presence of ATP by ADP-Glo kinase assay.
The target in test [27] is Dual specificity protein kinase CLK1 (Mus musculus, UniProt P22518). The experiment in a line: Inhibition of recombinant mouse CLK1 expressed in bacteria using GRSRSRSRSRSR as substrate incubated for 30 mins in presence of ATP by ADP-Glo kinase assay.
Sequence of Dual specificity protein kinase CLK1 (P22518 whole entry, the tested form may be a part): as the sequence (P22518 whole entry, looked up) above
The target of test [28] is Dual specificity tyrosine-phosphorylation-regulated kinase 1A (Rattus norvegicus) (UniProt Q63470). The experiment in a line: Inhibition of recombinant rat DYRK1A kinase domain (1 to 499 residues) expressed in bacteria assessed as enzyme residual activity using KKISGRLSPIMTEQ as substrate at 1 uM incubated for 30 mins in presence of ATP by ADP-Glo kinase assay.
In test [29] the test system is TERT-RPE1. The experiment in a line: cells. Conditions: Homo sapiens, RPE-1, 48 h.
Description: Cytotoxicity against human TERT-RPE1 cells assessed as reduction in cell viability incubated for 48 hrs by MTS assay
Test [30] has as its system HCT-116. The experiment in a line: cells. The following applies: Homo sapiens, HCT-116, 48 h.
Description: Antiproliferative activity against human HCT-116 cells assessed as reduction in cell viability incubated for 48 hrs by MTS assay
In test [31] the test system is U2OS. The experiment in a line: Induction of cell cycle arrest in human U2OS cells assessed as proportion of cells at S phase at 2.5 uM incubated for 24 hrs by flow cytometry (reference value: 39%). The format is functional.
The target of test [32] is T4, Serine/threonine-protein kinase haspin (Homo sapiens, UniProt Q8TF76).
T4 sequence (Q8TF76 whole entry): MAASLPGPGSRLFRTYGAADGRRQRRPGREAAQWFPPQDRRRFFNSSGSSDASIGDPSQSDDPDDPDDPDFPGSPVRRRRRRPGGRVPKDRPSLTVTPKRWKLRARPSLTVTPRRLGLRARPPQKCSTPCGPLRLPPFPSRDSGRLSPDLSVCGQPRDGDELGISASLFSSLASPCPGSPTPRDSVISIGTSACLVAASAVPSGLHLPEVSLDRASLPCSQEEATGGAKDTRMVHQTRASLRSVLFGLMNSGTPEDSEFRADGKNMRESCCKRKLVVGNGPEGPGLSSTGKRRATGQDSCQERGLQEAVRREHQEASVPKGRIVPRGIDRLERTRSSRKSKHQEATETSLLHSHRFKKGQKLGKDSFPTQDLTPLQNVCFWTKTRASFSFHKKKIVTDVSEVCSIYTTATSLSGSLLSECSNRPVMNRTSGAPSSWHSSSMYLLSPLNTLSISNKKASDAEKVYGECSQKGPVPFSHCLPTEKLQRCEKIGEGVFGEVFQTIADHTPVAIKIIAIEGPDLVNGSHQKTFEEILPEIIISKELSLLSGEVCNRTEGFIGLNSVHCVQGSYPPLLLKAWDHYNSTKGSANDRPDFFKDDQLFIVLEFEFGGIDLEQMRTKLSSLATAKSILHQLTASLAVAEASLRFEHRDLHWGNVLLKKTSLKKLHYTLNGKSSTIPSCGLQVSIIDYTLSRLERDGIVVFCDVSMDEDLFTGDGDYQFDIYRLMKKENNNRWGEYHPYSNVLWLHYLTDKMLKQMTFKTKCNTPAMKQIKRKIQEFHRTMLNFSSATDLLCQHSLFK
The experiment in a line: Inhibition of recombinant human Haspin kinase domain (470 to 798 residues) expressed in bacteria using histone H3 (1 to 21) peptide as substrate incubated for 30 mins in presence of ATP by ADP-Glo kinase assay.

Sequence of Glycogen synthase kinase-3 beta (Homo sapiens) (P49841 whole entry, looked up): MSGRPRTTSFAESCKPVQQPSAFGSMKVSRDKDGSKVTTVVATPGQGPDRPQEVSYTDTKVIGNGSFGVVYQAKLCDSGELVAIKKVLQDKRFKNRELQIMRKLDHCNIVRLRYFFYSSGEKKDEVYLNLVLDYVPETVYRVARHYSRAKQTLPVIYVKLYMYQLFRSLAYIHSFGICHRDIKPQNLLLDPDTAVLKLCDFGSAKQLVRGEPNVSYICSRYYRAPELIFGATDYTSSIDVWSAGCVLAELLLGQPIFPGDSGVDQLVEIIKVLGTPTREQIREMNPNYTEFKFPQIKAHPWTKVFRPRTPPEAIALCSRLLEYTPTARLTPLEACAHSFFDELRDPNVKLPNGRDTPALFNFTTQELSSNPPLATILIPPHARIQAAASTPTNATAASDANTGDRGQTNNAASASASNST

Turning to `CCCNc1ccc2ncc(-c3ccc4[nH]ncc4c3)n2n1`, the Activity in [1] turned out to be 44%; in test [2], 38%; in test [3], 18%.

In general, EC50 refers to the concentration giving half of the maximal effect. One may read the IC50 as the concentration at which inhibition is half-maximal. Regarding `c1cc(-c2c[nH]c3cc4cnccc4cc23)ccn1`, the EC50 stood at 11.2 µM in [4]; 24.1 µM in test [7]; 20 µM in [23]; 7.8 µM in [29]; 7.3 µM in test [30]. Besides, the Activity in [5] is 37%; in test [6] it was 18%; in [8] it was 9%; in [9] it was 45%; in test [11], 48%; in test [12] it was 11%. Moreover, the Activity in test [13] was 13%; in [14], 78%; in test [16] it was 17%; in [17], 92%; in test [18], 49%; in test [19], 38%. The Activity amounted to 25% in [20]; 54% in [21]; 10% in test [22]; 61% in [24]; 46% in test [25]; 79% in [26]. The results for the Activity in [28] and in test [31] were 46% and 39%, respectively. Besides, the IC50 was 0.479 µM in [10], 0.513 µM in test [15], 0.693 µM in test [27] and 0.076 µM in test [32].

(Values after ChEMBL document CHEMBL5550090, “Synthesis and biological evaluation of 1H-pyrrolo[3,2-g]isoquinolines” (Bioorg Med Chem, 2024).)
